Measured values from patent US20050032810A1, “Novel anthelmintic and insecticidal compositions” (priority 2003, published 2005).

Test system: H. contortus larvae
Experiment: H. contortus Larval Development Assay
Assay type: cell-based
Details: at 10 μM
Text: Compounds can be evaluated for anthelmintic activity according to the H. contortus Larval Development Assay described in Journal of Helminthology, 1984, 58, 107.

SMILES: Nc1cc(N2CCC(c3ccccc3)CC2)nc(N)n1 [Compound 2, 6-(4-phenylpiperidin-1-yl)pyrimidine-2,4-diamine]
- motility of the larvae: inhibited motility of the larvae
